From ChEMBL document CHEMBL5241087, “A review on the structures and biological activities of anti-Helicobacter pylori agents” (Eur J Med Chem, 2021)
In brackets after ≈: the same amount, converted by molar mass. Blank lines part the entries; values can stand above or below the compound they belong to.

Key:
[1] = target: Inosine-5'-monophosphate dehydrogenase 2 (Homo sapiens) (UniProt P12268); assay: Inhibition of human IMPDH at 10 uM incubated for 10 mins by multilabel reader analysis relative to control
Chain of Inosine-5'-monophosphate dehydrogenase 2 (Homo sapiens) (P12268 2-514 limits assumed): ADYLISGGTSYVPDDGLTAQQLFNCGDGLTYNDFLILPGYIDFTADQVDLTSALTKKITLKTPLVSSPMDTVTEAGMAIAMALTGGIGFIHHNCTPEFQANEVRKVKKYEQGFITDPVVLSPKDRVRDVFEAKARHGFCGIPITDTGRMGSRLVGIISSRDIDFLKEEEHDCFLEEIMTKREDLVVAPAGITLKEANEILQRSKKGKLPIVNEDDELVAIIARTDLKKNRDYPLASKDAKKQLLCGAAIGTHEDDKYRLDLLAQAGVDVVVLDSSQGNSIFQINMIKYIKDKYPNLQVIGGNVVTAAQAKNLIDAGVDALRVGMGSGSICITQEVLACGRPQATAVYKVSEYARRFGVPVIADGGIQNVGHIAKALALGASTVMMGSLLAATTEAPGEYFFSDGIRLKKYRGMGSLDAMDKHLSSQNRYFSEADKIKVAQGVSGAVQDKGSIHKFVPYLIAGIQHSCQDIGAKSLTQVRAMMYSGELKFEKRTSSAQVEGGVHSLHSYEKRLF

[2] = Inhibition of Helicobacter pylori IMPDH incubated for 10 mins by multilabel reader analysis
[3] = system: Helicobacter pylori; assay: Inhibition of Helicobacter pylori IMPDH at 10 uM incubated for 10 mins in presence of […] by multilabel reader analysis relative to control
[4] = Inhibition of Helicobacter pylori IMPDH incubated for 10 mins in presence of […] by multilabel reader analysis
[5] = Inhibition of Helicobacter pylori IMPDH
[6] = system: Helicobacter pylori; assay: Antibacterial activity against clinical isolate Helicobacter pylori assessed as bacterial growth inhibition incubated for 72 hrs by agar dilution method; assay type: functional
[7] = system: Helicobacter pylori; assay: Antimicrobial activity against Helicobacter pylori assessed as inhibition of bacterial growth incubated for 72 hrs by broth dilution method; assay type: functional
[8] = system: Helicobacter pylori; assay: Antibacterial activity against Helicobacter pylori ATCC 43504 assessed as bacterial growth inhibition; assay type: functional
[9] = system: Helicobacter pylori; assay: Antimicrobial activity against Helicobacter pylori EP1757 assessed as inhibition of bacterial growth; assay type: functional
[10] = system: Helicobacter pylori; assay: Antimicrobial activity against Helicobacter pylori EP1836 assessed as inhibition of bacterial growth; assay type: functional
[11] = system: Helicobacter pylori; assay: Antibacterial activity against Helicobacter pylori assessed as bacterial growth inhibition; assay type: functional
[12] = system: Helicobacter pylori; assay: Antibacterial activity against metronidazole-resistant Helicobacter pylori assessed as diameter of zone inhibition at 12.5 to 100 ug per disk by paper disk diffusion assay; assay type: functional; conditions: dose 12.5-100 µg
[13] = system: Helicobacter pylori; assay: Antibacterial activity against Helicobacter pylori; assay type: functional
[14] = system: Helicobacter pylori; assay: Antibacterial activity against metronidazole-resistant Helicobacter pylori assessed as diameter of zone inhibition at 16 to 32 ug per disk incubated for 2 to 10 days by disk diffusion assay; assay type: functional; conditions: dose 16-32 µg; time 2-10 day
[15] = system: Helicobacter pylori; assay: Antibacterial activity against Helicobacter pylori assessed as diameter of zone inhibition at 25 to 100 ug per disk incubated for […] by disk diffusion assay; assay type: functional; conditions: dose 25-100 µg
[16] = system: Helicobacter pylori; assay: Antibacterial activity against Helicobacter pylori assessed as diameter of zone inhibition at 12.5 to 100 ug per disk incubated for […] by disk diffusion assay; assay type: functional; conditions: dose 12.5-100 µg
[17] = target: T1, Aminodeoxyfutalosine nucleosidase (Helicobacter pylori (strain J99 / ATCC 700824) (Campylobacter pylori J99), UniProt Q9ZMY2); assay: Inhibition of Helicobacter pylori MTAN assessed as dissociation constant
T1 sequence (Q9ZMY2 whole entry): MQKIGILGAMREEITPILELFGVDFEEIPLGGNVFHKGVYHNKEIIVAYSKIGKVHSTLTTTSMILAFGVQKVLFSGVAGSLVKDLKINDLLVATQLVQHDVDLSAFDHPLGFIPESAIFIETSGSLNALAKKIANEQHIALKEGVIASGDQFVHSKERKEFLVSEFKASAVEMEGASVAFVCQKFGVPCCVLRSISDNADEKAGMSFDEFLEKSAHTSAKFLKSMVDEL

[18] = system: Helicobacter pylori; assay: Antimicrobial activity against Helicobacter pylori KA05 assessed as inhibition of bacterial growth by broth dilution method; assay type: functional
[19] = target: T2, Glutamate racemase (Helicobacter pylori J99, UniProt Q9ZLT0); assay: Inhibition of Helicobacter pylori Glutamate racemase
T2 sequence (Q9ZLT0 whole entry): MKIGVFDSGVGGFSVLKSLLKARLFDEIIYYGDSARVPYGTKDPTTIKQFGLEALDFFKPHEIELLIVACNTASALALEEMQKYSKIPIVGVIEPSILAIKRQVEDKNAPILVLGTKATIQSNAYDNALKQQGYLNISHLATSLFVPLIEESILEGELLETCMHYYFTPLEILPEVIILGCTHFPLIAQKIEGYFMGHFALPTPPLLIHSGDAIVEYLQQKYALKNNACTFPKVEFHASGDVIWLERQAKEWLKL

[20] = system: Helicobacter pylori; assay: Antibacterial activity against wild type Helicobacter pylori; assay type: functional
[21] = Inhibition of Helicobacter pylori GatCAB assessed as inhibition constant
[22] = system: Helicobacter pylori; assay: Antibacterial activity against metronidazole-resistant Helicobacter pylori ATCC 43504; assay type: functional, organism-based
[23] = Inhibition of urease (unknown origin)
[24] = Antioxidant activity assessed as radical scavenging activity; assay type: functional
[25] = system: Helicobacter pylori; assay: Antibacterial activity against metronidazole-resistant Helicobacter pylori incubated for 72 hrs; assay type: functional
[26] = system: Helicobacter pylori; assay: Antibacterial activity against metronidazole-resistant Helicobacter pylori assessed as inhibition zone at 50 ug per disk by paper disk diffusion assay; assay type: functional; conditions: read-out: IZ
[27] = Plasma protein binding in human; assay type: ADME, cell-free; conditions: read-out: PPB (converted)
[28] = system: Helicobacter pylori; assay: Antibacterial activity against Helicobacter pylori SS1 assessed as reduction in bacterial growth by broth microdilution method; assay type: functional
[29] = system: Helicobacter pylori; assay: Antibacterial activity against Helicobacter pylori P12 assessed as reduction in bacterial growth by broth microdilution method; assay type: functional

SMILES: COc1ccc(-c2oc3ccccc3c(=O)c2OCC(=O)Nc2ccc3c(c2)COC3=O)cc1
inhibition [1]: 57%
IC50 [2]: 1.88 µM
inhibition [3]: > 70%
IC50 [4]: 2.21 µM

SMILES: Cn1cnc([N+](=O)[O-])c1S(=O)(=O)c1ccccc1
MIC [6]: 32 µg/mL (≈ 120 µM)

SMILES: NC(=O)Cc1csc(SC2=C(C(=O)O)N3C(=O)[C@@H](NC(=O)Cc4ccccc4)[C@H]3SC2)n1
MIC [9]: 0.00078 µg/mL (≈ 0.00159 µM)
MIC [10]: 0.00313 µg/mL (≈ 0.00638 µM)

SMILES: CC(Sc1nnc(-c2ncc([N+](=O)[O-])n2C)s1)c1ccccc1 (centres undefined)
diameter of the inhibition zone (DIZ) [12]: >50 mm

SMILES: CO/N=C(/CN1CCN(c2cc3c(cc2F)c(=O)c(C(=O)O)cn3C2CC2)CC1)c1ccccc1Cl
diameter of the inhibition zone (DIZ) [14]: 6 mm

SMILES: CCCNC(=O)CSc1nnc(-c2ccc([N+](=O)[O-])o2)s1
diameter of the inhibition zone (DIZ) [15]: 10 mm
diameter of the inhibition zone (DIZ) [16]: 33 mm

SMILES: CC[C@H]1OC(=O)[C@H](C)[C@@H](O[C@H]2C[C@@](C)(OC)[C@@H](O)[C@H](C)O2)[C@H](C)[C@@H](O[C@@H]2O[C@H](C)C[C@H](N(C)C)[C@H]2O)[C@](C)(OC)C[C@@H](C)C(=O)[C@H](C)[C@@H](O)[C@]1(C)O [CLARITHROMYCIN]
MIC [13]: 0.78 µg/mL (≈ 1.04 µM)

SMILES: COC1=CC(=O)c2c(cc(C)c(C(C)=O)c2O)C1=O
MIC50 [13]: 0.3 µM (≈ 0.0781 µg/mL)
MIC90 [13]: 0.39 µM (≈ 0.101 µg/mL)

SMILES: CN(C)c1ncnc2c1ncn2[C@@H]1O[C@H](CO)[C@@H](NC(=O)[C@@H](N)CCS(C)(=O)=O)[C@H]1O
IC50 [2]: 1.27 µM
Ki [21]: 4 µM

SMILES: CN(CCO)CC(O)COc1cccc2c(=O)c3ccccc3oc12.Cl (centres undefined)
IC50 [22]: 5 µg/mL

SMILES: COc1cc2ccc(=O)oc2cc1O[C@@H]1O[C@H](CO)[C@@H](O)[C@H](O)[C@H]1O [SCOPOLIN]
MIC [18]: 50 µg/mL (≈ 141 µM)

SMILES: COC1=CC(=O)c2c(c(OC)c3cc(C)oc(=O)c3c2O)C1=O
MIC [11]: 64 µg/mL (≈ 202 µM)
ED50 [24]: 1.58 µg/mL (≈ 5 µM)

SMILES: Cc1ncc([N+](=O)[O-])n1CCO [METRONIDAZOLE]
MIC [11]: > 254 µg/mL
ED50 [24]: 5.4 µg/mL (≈ 31.6 µM)
MIC [6]: 2 µg/mL (≈ 11.7 µM)
diameter of the inhibition zone (DIZ) [15]: 10 mm

SMILES: NNc1nc(-c2cc3ccccc3oc2=O)cs1
MIC [25]: ≥ 16 µg/mL

SMILES: CCCCOC(=O)/C=C/c1ccc(O)c(O)c1 [BUTYL CAFFEATE]
MIC [13]: 250 µg/mL (≈ 1060 µM)

SMILES: C=C(C)CCC(CC1(CC=C(C)C)C(=O)C(C(CCC)CC(=O)O)=C2O[C@H](C)[C@@H](C)C(=O)C2=C1O)C(=C)C (some centres undefined)
MIC [13]: 50 µg/mL (≈ 94.9 µM)

SMILES: O=C(CSc1nnc(-c2ccc([N+](=O)[O-])o2)s1)c1ccccc1Cl
zone of inhibition at 50 µg/disc [26]: ≥ 20 mm

SMILES: CCCCCCCOC(=O)/C=C/c1ccc(O)c(O)c1
MIC [13]: 250 µg/mL (≈ 898 µM)

SMILES: CC1=C(/C=N/NC(N)=S)C(C)(C)CC=C1
MIC90 [7]: 4 µM (≈ 0.893 µg/mL)

SMILES: O=C(CC(O)c1cc(Cl)ccc1OCc1ccccc1)NO (centres undefined)
IC50 [23]: 0.15 µM
fraction unbound [27]: 0.56

SMILES: O=c1oc2ccccc2cc1-c1csc(N/N=C/c2ccco2)n1
MIC [25]: ≥ 16 µg/mL

Now from value to compound:

IC50 [5]: 0.8 µM
SMILES: O=C(Cn1cc(/N=N/c2cccnc2)c2ccccc21)Nc1ccc(Cl)cc1

MIC50 [7]: 2 µg/mL (≈ 13.3 µM)
SMILES: CC1=C(C=O)C(C)(C)CC=C1

MIC [8]: 0.39 µg/mL (≈ 0.921 µM)
SMILES: Cc1ncc([N+](=O)[O-])n1CCOc1cc(O)c2c(=O)c(-c3ccc(O)cc3)coc2c1

MIC [11]: < 1.5 µg/mL
SMILES: Cn1c([N+](=O)[O-])cnc1/C=C1\S/C(=N/c2cccs2)NC1=O

MIC [13]: 12.5 µg/mL (≈ 23.7 µM)
SMILES: C=C(C)C(CC=C(C)C)CC1(CC=C(C)C)C(=O)C(C(CCC)CC(=O)O)=C2O[C@H](C)[C@@H](C)C(=O)C2=C1O (some centres undefined)

IC50 [4]: 2.21 µM
SMILES: O=C(COc1ccc2ccccc2c1)Nc1ccc2c(c1)COC2=O

Kd [17]: < 0.05 µM
SMILES: CCCCSC[C@H]1CN(Cc2c[nH]c3c(N)ncnc23)C[C@@H]1O

IC50 [5]: 0.8 µM
SMILES: O=C(Cn1cc(/N=N/c2cccnc2)c2ccccc21)Nc1ccc2ccccc2c1

MIC [18]: 50 µg/mL (≈ 260 µM)
SMILES: COc1cc2ccc(=O)oc2cc1O [SCOPOLETIN]

IC50 [19]: 0.026 µM
MIC [20]: 0.5 µg/mL (≈ 1 µM)
SMILES: Cn1cc(C#N)cc1-c1c2c(=O)n(C)c(=O)n(CC3CC3)c2nn1Cc1ccnc2ccc(Cl)cc12

IC50 [2]: 1.27 µM
SMILES: Clc1ccc(Cn2cc(COc3cccc4ccccc34)nn2)cc1Cl

IC50 [23]: 1.1 µM
SMILES: CN(O)C(=O)CC(O)c1cccc(Cl)c1 (centres undefined)

MIC [11]: < 1.5 µg/mL
SMILES: O=C1N/C(=N\c2cccs2)S/C1=C\c1ccc([N+](=O)[O-])o1

Kd [17]: < 0.05 µM
SMILES: CCCSC[C@H]1CN(Cc2c[nH]c3c(N)ncnc23)C[C@@H]1O

MIC50 [7]: 2 µg/mL (≈ 5.43 µM)
SMILES: CC1=C(/C=N/Nc2nc(-c3cccc([N+](=O)[O-])c3)cs2)C(C)(C)CC=C1

Kd [17]: < 0.05 µM
SMILES: CCCCCCSC[C@H]1CN(Cc2c[nH]c3c(N)ncnc23)C[C@@H]1O

MIC90 [7]: 4 µM (≈ 0.949 µg/mL)
SMILES: CC1=C(/C=N/N(C)C(N)=S)C(C)(C)CC=C1

Ki [21]: 4 µM
SMILES: COc1ccc(C[C@H](N)C(=O)N[C@H]2[C@@H](O)[C@H](n3cnc4c(N(C)C)ncnc43)O[C@@H]2CO)cc1 [PUROMYCIN]

MIC [28]: 200 µM (≈ 51.7 µg/mL)
MIC [29]: 200 µM (≈ 51.7 µg/mL)
SMILES: CCOc1ccc2nc(S(N)(=O)=O)sc2c1 [ETHOXZOLAMIDE]
